Data as given in ChEMBL document CHEMBL1153819, “Use of acetylcholine binding protein in the search for novel alpha7 nicotinic receptor ligands. In silico docking, pharmacological screening, and X-ray analysis” (J Med Chem, 2009).
Calls of active or inactive are those of the source. The calls are words filed in the database; no cut-off is given here.

Molecular target: T1, Neuronal acetylcholine receptor subunit alpha-7 (Homo sapiens, UniProt P36544)
T1 sequence (P36544 whole entry): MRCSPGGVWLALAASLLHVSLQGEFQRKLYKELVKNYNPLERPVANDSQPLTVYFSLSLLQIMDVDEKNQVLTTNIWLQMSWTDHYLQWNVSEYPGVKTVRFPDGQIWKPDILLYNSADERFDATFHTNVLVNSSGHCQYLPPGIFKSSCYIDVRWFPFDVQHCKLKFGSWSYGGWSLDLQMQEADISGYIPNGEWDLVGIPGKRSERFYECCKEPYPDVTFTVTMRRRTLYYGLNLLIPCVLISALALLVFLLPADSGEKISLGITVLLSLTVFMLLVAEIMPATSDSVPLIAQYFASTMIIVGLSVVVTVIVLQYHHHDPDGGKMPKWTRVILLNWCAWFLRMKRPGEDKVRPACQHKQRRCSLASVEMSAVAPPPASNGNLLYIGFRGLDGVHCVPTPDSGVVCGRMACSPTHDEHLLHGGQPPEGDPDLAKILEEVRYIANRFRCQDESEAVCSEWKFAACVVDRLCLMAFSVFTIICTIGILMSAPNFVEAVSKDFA
Assay: Activity at human alpha7 nAChR expressed in Xenopus oocytes assessed as inhibition of acetylcholine-evoked current
Assay type: cell-based, Oocyte
Settings: not given
`c1ccc(CN2C3CCC2CC(OC2c4ccccc4CCc4ccccc42)C3)cc1` (centres undefined) showed an IC50 of 1730 nM. With `C[N+]1(C)C2CCC1CC(OC1c3ccccc3CCc3ccccc31)C2` (centres undefined) the IC50 was 880 nM.

Same assay, conditions: Oocyte
In the case of `c1ccc(CN2C3CCC2CC(OC2c4ccccc4CCc4ccccc42)C3)cc1` (centres undefined), the Activity is reported as “Dose-dependent effect”. For `C[N+]1(C)C2CCC1CC(OC1c3ccccc3CCc3ccccc31)C2` (centres undefined), the Activity was “Dose-dependent effect”.

Molecular target: T1, Neuronal acetylcholine receptor subunit alpha-7
Assay: Binding affinity to human alpha7 nAChR allosteric site assessed as decrease in bungarotoxin Bmax at 100 uM by [125I]alpha-bungarotoxin saturation binding experiment
Settings: not given
For `c1ccc(CN2C3CCC2CC(OC2c4ccccc4CCc4ccccc42)C3)cc1` (centres undefined), the Activity was “Active”. In the case of `C[N+]1(C)C2CCC1CC(OC1c3ccccc3CCc3ccccc31)C2` (centres undefined), the Activity is reported as “Active”.

Molecular target: Acetylcholine-binding protein (Lymnaea stagnalis, UniProt P58154)
Sequence (P58154 whole entry): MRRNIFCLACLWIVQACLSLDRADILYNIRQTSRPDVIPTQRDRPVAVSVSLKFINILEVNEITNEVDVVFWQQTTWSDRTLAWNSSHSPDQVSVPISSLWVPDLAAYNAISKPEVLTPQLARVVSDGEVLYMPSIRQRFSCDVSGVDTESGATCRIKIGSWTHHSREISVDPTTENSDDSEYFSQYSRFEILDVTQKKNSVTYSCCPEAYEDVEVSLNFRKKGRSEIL
Assay: Displacement of [125I]alpha-bungarotoxin from Lymnaea stagnalis His-tagged AchBP
Settings: not given
`c1ccc2c(c1)CCc1ccccc1C2OC1CCNCC1` gave a Ki of 3160 nM. `CN1CCC(OC2c3ccccc3CCc3ccccc32)CC1` [HEPZIDINE] showed a Ki of 1580 nM. `c1ccc(CN2C3CCC2CC(OC2c4ccccc4CCc4ccccc42)C3)cc1` (centres undefined) gave a Ki of 100 nM. With `CN1C2CCC1CC(OC(=O)COC1c3ccccc3CCc3ccccc31)C2` (centres undefined) the Ki was 100 nM. Molecule `CCCN1CCC(OC2c3ccccc3CCc3ccccc32)CC1` has a Ki of 631 nM. Work on `N#CCCN1C2CCC1CC(OC1c3ccccc3CCc3ccccc31)C2` (centres undefined) yielded a Ki of 1000 nM. `N=C(CCN1C2CCC1CC(OC1c3ccccc3CCc3ccccc31)C2)NO` (centres undefined) gave a Ki of 1260 nM. Molecule `Cc1cccc2c1CCc1ccccc1C2OC1CC2CCC(C1)N2C` (centres undefined) has a Ki of 316 nM. `CCN1C2CCC1CC(OC1c3ccccc3CCc3ccccc31)C2` (centres undefined) gave a Ki of 126 nM. Work on `CC(=O)OCC[N+](C)(C)C` [ACETYLCHOLINE] yielded a Ki of 3160 nM. In the case of `C[N+]1(C)C2CCC1CC(OC1c3ccccc3CCc3ccccc31)C2` (centres undefined), the Ki is reported as 63.1 nM. Molecule `Cc1ccc2c(c1)C(OC1CC3CCC(C1)N3C)c1ccccc1CC2` (centres undefined) has a Ki of 126 nM. With `NC(N)=NCCN1C2CCC1CC(OC1c3ccccc3CCc3ccccc31)C2` (centres undefined) the Ki was 501 nM. Molecule `c1ccc2c(c1)CCc1ccccc1C2OC1CC2CCC(C1)N2` (centres undefined) has a Ki of 316 nM. `CN1[C@@H]2CC[C@H]1C[C@@H](OC1c3ccccc3CCc3ccccc31)C2` [DEPTROPINE] gave a Ki of 398 nM.

Molecular target: T2, Neuronal acetylcholine receptor; alpha4/beta2 (Homo sapiens, UniProt P17787+P43681)
T2 sequence (P17787 whole entry): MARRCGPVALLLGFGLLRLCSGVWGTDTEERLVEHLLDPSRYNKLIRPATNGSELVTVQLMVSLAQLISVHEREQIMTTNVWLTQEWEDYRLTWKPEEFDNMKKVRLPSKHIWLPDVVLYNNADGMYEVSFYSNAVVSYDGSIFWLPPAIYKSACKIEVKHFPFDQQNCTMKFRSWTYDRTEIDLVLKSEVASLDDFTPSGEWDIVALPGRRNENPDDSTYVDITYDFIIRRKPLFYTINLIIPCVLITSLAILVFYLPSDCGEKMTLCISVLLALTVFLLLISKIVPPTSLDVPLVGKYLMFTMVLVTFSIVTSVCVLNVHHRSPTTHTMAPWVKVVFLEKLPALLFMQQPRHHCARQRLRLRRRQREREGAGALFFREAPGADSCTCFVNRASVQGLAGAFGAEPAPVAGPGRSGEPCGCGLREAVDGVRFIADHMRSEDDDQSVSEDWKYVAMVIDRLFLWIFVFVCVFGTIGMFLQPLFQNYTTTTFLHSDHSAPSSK
T2 sequence (P43681 whole entry): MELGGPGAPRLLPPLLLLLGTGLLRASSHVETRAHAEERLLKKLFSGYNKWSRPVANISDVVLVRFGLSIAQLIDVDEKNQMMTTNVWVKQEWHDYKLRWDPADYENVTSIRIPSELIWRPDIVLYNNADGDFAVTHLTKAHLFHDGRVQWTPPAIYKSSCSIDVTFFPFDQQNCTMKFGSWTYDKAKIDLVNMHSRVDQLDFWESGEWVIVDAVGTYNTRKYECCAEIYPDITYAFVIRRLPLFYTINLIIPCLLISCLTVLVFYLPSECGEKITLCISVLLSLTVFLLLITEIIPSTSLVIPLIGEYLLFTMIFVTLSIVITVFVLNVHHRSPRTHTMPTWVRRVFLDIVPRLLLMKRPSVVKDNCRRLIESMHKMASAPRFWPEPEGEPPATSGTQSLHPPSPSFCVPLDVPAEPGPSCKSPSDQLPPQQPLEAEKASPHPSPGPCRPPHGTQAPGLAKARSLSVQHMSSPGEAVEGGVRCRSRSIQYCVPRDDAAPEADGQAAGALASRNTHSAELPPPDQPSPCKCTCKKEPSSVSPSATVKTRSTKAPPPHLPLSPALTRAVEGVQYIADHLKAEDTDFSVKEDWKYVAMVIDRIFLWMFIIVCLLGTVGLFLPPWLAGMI
Assay: Displacement of [3H]epibatidine from human alpha4beta2 nAChR expressed in HEK293t cells
Assay type: cell-based
Settings: HEK-293T
In the case of `c1ccc(CN2C3CCC2CC(OC2c4ccccc4CCc4ccccc42)C3)cc1` (centres undefined), the Activity is reported as “inactive”. For `C[N+]1(C)C2CCC1CC(OC1c3ccccc3CCc3ccccc31)C2` (centres undefined), the Activity was “inactive”.

Molecular target: T1, Neuronal acetylcholine receptor subunit alpha-7
Assay: Displacement of [125I]alpha-bungarotoxin from human alpha7 nAChR expressed in human SH-SY5Y cells
Assay type: cell-based
Settings: not given
In the case of `c1ccc(CN2C3CCC2CC(OC2c4ccccc4CCc4ccccc42)C3)cc1` (centres undefined), the Ki is reported as 12600 nM. `C[N+]1(C)C2CCC1CC(OC1c3ccccc3CCc3ccccc31)C2` (centres undefined) gave a Ki of 2000 nM.

Molecular target: not listed separately
Assay: Displacement of [3H]epibatidine from Aplysia californica AchBP
Settings: not given
With `CN1CCC[C@H]1c1cccnc1` [NICOTINE] the pKi was 6.4. `c1ccc(CN2C3CCC2CC(OC2c4ccccc4CCc4ccccc42)C3)cc1` (centres undefined) gave a pKi of 6.

Molecular target: T1, Neuronal acetylcholine receptor subunit alpha-7
Assay: Binding affinity to human alpha7 nAChR allosteric site assessed as increase in bungarotoxin Kd at 100 uM by [125I]alpha-bungarotoxin saturation binding experiment
Settings: not given
In the case of `c1ccc(CN2C3CCC2CC(OC2c4ccccc4CCc4ccccc42)C3)cc1` (centres undefined), the Activity is reported as “Active”.

Molecular target: T2, Neuronal acetylcholine receptor; alpha4/beta2
Assay: Activity at human alpha4beta2 nAChR expressed in Xenopus oocytes assessed as inhibition of acetylcholine-evoked current
Assay type: cell-based, Oocyte
Settings: not given
In the case of `c1ccc(CN2C3CCC2CC(OC2c4ccccc4CCc4ccccc42)C3)cc1` (centres undefined), the IC50 is reported as 460 nM. For `C[N+]1(C)C2CCC1CC(OC1c3ccccc3CCc3ccccc31)C2` (centres undefined), the IC50 was 210 nM.

Same assay, conditions: Oocyte
For `c1ccc(CN2C3CCC2CC(OC2c4ccccc4CCc4ccccc42)C3)cc1` (centres undefined), the Activity was “Dose-dependent effect”. In the case of `C[N+]1(C)C2CCC1CC(OC1c3ccccc3CCc3ccccc31)C2` (centres undefined), the Activity is reported as “Dose-dependent effect”.

Molecular target: T3, 5-hydroxytryptamine receptor 3A (Homo sapiens) (UniProt P46098)
T3 sequence (whole entry): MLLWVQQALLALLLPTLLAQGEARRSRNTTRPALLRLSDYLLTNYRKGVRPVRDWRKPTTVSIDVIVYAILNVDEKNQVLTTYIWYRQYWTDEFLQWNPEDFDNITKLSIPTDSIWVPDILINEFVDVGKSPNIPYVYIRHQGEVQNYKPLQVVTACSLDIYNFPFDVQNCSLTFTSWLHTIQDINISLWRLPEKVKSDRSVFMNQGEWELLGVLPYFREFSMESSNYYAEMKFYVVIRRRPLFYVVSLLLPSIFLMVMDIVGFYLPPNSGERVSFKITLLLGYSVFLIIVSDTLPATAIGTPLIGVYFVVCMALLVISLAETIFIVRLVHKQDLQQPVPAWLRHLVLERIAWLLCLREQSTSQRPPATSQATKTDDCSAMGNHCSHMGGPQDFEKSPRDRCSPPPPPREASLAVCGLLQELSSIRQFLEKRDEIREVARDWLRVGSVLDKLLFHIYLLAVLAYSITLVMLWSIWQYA
Assay: Inhibition of human 5HT3A receptor
Settings: not given
In the case of `c1ccc(CN2C3CCC2CC(OC2c4ccccc4CCc4ccccc42)C3)cc1` (centres undefined), the Activity is reported as “Active”. For `C[N+]1(C)C2CCC1CC(OC1c3ccccc3CCc3ccccc31)C2` (centres undefined), the Activity was “Active”.
